Measured values as given in ChEMBL document CHEMBL4364276, “Discovery of 4-phenyl-2H-benzo[b][1,4]oxazin-3(4H)-one derivatives as potent and orally active PI3K/mTOR dual inhibitors” (Eur J Med Chem, 2019).

Experiments:
[1] = Oral bioavailability in Sprague-Dawley rat at 10 mg/kg measured upto 24 hrs by LC-MS/MS analysis; type: ADME, organism-based; conditions: in vivo
[2] = biological target: Myosin-IIIb (Homo sapiens) (UniProt Q8WXR4); assay: Inhibition of human MYO3B at 100 nM using MBP as substrate by [gamma-33P]-ATP assay
[3] = biological target: Calcium/calmodulin-dependent protein kinase type II subunit alpha (Homo sapiens) (UniProt Q9UQM7); assay: Inhibition of human CAMK2A at 100 nM using KKALRRQETVDAL as substrate by [gamma-33P]-ATP assay
[4] = biological target: Activin receptor type-1 (Homo sapiens) (UniProt Q04771); assay: Inhibition of human ALK2 at 100 nM using casein as substrate by [gamma-33P]-ATP assay
[5] = biological target: cGMP-dependent protein kinase 1 (Homo sapiens) (UniProt Q13976); assay: Inhibition of human PKG1beta at 100 nM using LRRASLG as substrate by [gamma-33P]-ATP assay
Chain of cGMP-dependent protein kinase 1 (Homo sapiens) (Q13976 whole entry): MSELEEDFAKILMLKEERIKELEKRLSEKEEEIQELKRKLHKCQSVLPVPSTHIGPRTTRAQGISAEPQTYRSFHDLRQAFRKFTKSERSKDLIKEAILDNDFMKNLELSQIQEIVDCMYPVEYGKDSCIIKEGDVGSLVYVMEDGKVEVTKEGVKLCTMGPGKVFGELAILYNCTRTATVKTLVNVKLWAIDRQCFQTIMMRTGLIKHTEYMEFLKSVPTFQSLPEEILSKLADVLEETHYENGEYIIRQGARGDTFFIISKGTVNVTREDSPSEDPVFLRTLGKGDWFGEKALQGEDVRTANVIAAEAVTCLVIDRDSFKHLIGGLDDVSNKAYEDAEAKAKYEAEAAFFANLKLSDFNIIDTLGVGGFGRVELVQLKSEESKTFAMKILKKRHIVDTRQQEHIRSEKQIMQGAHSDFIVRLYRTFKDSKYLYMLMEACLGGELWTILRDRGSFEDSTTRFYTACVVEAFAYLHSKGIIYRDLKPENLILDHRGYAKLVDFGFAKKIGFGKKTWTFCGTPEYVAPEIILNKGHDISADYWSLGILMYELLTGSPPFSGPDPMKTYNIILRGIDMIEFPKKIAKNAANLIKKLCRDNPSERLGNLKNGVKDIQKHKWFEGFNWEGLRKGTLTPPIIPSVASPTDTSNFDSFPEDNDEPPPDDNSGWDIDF

[6] = biological target: Ephrin type-A receptor 1 (Homo sapiens) (UniProt P21709); assay: Inhibition of human EPHA1 at 100 nM using poly[Glu:Tyr] (4:1) as substrate by [gamma-33P]-ATP assay
[7] = biological target: Serine/threonine-protein kinase D3 (Homo sapiens) (UniProt O94806); assay: Inhibition of human PKCnu at 100 nM using KKLNRTLSVA as substrate by [gamma-33P]-ATP assay
[8] = biological target: Rhodopsin kinase GRK1 (Homo sapiens) (UniProt Q15835); assay: Inhibition of human GRK1 at 100 nM using casein as substrate by [gamma-33P]-ATP assay
[9] = biological target: MAP kinase-interacting serine/threonine-protein kinase 2 (Homo sapiens) (UniProt Q9HBH9); assay: Inhibition of human MNK2 at 100 nM using MBP as substrate by [gamma-33P]-ATP assay
[10] = biological target: Mitogen-activated protein kinase kinase kinase 9 (Homo sapiens) (UniProt P80192); assay: Inhibition of human MLK1 at 100 nM using casein as substrate by [gamma-33P]-ATP assay
[11] = biological target: Mitogen-activated protein kinase kinase kinase 6 (Homo sapiens) (UniProt O95382); assay: Inhibition of human MEKK6 at 100 nM using MBP as substrate by [gamma-33P]-ATP assay
Chain of Mitogen-activated protein kinase kinase kinase 6 (Homo sapiens) (O95382 whole entry): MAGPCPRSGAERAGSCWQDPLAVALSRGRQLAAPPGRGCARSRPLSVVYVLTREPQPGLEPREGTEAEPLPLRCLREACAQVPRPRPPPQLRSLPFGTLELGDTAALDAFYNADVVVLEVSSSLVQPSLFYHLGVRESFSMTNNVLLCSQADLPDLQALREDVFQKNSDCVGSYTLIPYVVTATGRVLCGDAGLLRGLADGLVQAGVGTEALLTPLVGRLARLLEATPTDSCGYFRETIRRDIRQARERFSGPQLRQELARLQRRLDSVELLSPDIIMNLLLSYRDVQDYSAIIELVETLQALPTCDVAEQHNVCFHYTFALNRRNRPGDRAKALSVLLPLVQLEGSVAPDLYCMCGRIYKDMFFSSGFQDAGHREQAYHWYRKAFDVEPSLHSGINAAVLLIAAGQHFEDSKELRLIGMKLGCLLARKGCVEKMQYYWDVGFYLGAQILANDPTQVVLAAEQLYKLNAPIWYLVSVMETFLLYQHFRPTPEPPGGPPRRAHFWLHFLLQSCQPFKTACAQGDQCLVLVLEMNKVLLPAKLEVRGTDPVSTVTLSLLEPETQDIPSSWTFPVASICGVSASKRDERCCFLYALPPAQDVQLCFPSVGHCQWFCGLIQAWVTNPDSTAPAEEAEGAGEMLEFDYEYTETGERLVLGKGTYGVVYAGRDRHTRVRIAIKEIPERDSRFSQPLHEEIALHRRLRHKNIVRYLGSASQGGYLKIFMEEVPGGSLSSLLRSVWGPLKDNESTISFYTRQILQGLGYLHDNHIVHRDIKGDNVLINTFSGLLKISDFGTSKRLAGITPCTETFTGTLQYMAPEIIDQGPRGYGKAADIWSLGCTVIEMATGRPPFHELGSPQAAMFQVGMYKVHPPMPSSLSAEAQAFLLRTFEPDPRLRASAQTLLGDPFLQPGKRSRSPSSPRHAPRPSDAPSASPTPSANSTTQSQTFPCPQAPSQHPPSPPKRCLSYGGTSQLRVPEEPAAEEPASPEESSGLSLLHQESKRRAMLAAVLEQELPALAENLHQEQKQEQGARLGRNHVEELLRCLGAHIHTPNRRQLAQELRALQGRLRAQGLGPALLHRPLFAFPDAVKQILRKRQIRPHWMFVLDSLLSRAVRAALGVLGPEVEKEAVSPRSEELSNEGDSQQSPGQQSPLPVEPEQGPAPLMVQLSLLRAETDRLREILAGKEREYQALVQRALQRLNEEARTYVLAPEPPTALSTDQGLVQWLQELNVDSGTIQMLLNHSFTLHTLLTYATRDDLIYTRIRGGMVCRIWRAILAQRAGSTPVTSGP

[12] = biological target: Protein kinase C delta type (Homo sapiens) (UniProt Q05655); assay: Inhibition of human PKCdelta at 100 nM using ERMRPRKRQGSVRRRV as substrate by [gamma-33P]-ATP assay
[13] = biological target: NUAK family SNF1-like kinase 2 (Homo sapiens) (UniProt Q9H093); assay: Inhibition of human SNARK at 100 nM using KKKVSRSGLYRSPSMPENLNRPR as substrate by [gamma-33P]-ATP assay
[14] = biological target: Mitogen-activated protein kinase kinase kinase 1 (Homo sapiens) (UniProt Q13233); assay: Inhibition of human MEKK1 at 100 nM using MBP as substrate by [gamma-33P]-ATP assay
[15] = biological target: Serine/threonine-protein kinase DCLK1 (Homo sapiens) (UniProt O15075); assay: Inhibition of human DCAMKL1 at 100 nM using KKLNRTLSFAEPG as substrate by [gamma-33P]-ATP assay
Chain of Serine/threonine-protein kinase DCLK1 (Homo sapiens) (O15075 whole entry): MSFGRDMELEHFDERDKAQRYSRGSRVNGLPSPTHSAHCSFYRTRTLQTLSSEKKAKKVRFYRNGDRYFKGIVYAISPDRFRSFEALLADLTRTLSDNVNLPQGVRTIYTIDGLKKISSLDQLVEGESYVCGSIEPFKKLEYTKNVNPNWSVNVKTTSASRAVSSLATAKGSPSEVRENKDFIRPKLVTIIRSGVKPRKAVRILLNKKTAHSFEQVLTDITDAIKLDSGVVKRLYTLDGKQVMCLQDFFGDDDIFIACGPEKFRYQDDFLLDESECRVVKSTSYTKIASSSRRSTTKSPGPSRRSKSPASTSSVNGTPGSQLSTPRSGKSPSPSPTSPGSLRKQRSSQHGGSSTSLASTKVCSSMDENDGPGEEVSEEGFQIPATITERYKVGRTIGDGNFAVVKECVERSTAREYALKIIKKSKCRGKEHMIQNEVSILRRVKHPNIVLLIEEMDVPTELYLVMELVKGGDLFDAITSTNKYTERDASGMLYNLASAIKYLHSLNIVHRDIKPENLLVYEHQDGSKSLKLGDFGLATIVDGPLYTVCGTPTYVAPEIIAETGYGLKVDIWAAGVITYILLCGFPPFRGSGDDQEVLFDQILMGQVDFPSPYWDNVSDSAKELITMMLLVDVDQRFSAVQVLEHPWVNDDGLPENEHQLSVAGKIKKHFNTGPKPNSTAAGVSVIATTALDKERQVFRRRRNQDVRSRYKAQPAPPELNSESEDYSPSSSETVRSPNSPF

[16] = biological target: [Pyruvate dehydrogenase (acetyl-transferring)] kinase isozyme 3, mitochondrial (Homo sapiens) (UniProt Q15120); assay: Inhibition of human PDK3 at 100 nM using MBP as substrate by [gamma-33P]-ATP assay
[17] = biological target: Serine/threonine-protein kinase WNK2 (Homo sapiens) (UniProt Q9Y3S1); assay: Inhibition of human WNK2 at 100 nM using MBP as substrate by [gamma-33P]-ATP assay
[18] = biological target: Mitogen-activated protein kinase 12 (Homo sapiens) (UniProt P53778); assay: Inhibition of human p38gamma at 100 nM using MBP as substrate by [gamma-33P]-ATP assay
Chain of Mitogen-activated protein kinase 12 (Homo sapiens) (P53778 whole entry): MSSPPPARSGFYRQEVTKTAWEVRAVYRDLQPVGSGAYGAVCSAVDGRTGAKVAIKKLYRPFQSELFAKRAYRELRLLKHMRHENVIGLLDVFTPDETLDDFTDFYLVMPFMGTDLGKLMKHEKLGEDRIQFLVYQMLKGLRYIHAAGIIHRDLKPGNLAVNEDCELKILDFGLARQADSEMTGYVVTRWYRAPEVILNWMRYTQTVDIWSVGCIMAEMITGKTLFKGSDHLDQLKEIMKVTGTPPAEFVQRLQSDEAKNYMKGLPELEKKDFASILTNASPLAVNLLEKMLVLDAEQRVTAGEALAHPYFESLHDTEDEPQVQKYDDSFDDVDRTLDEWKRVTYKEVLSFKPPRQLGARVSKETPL

[19] = biological target: Serine/threonine-protein kinase TBK1 (Homo sapiens) (UniProt Q9UHD2); assay: Inhibition of human TBK1 at 100 nM using KRRRAL[pS]VASLPGL as substrate by [gamma-33P]-ATP assay
[20] = biological target: Ephrin type-B receptor 1 (Homo sapiens) (UniProt P54762); assay: Inhibition of human EPHB1 at 100 nM using poly[Glu:Tyr] (4:1) as substrate by [gamma-33P]-ATP assay
[21] = biological target: Serine/threonine-protein kinase PLK4 (Homo sapiens) (UniProt O00444); assay: Inhibition of human PLK4 at 100 nM using casein as substrate by [gamma-33P]-ATP assay
[22] = biological target: Myosin light chain kinase, smooth muscle (Homo sapiens) (UniProt Q15746); assay: Inhibition of human MLCK at 100 nM using KKLNRTLSFAEPG as substrate by [gamma-33P]-ATP assay
[23] = biological target: Insulin receptor-related protein (Homo sapiens) (UniProt P14616); assay: Inhibition of human IRR at 100 nM using MBP as substrate by [gamma-33P]-ATP assay
[24] = biological target: Serine/threonine-protein kinase PAK 1 (Homo sapiens) (UniProt Q13153); assay: Inhibition of human PAK1 at 100 nM using RRRLSFAEPG as substrate by [gamma-33P]-ATP assay
[25] = biological target: Serine/threonine-protein kinase Nek2 (Homo sapiens) (UniProt P51955); assay: Inhibition of human NEK2 at 100 nM using MBP as substrate by [gamma-33P]-ATP assay
Chain of Serine/threonine-protein kinase Nek2 (Homo sapiens) (P51955 whole entry): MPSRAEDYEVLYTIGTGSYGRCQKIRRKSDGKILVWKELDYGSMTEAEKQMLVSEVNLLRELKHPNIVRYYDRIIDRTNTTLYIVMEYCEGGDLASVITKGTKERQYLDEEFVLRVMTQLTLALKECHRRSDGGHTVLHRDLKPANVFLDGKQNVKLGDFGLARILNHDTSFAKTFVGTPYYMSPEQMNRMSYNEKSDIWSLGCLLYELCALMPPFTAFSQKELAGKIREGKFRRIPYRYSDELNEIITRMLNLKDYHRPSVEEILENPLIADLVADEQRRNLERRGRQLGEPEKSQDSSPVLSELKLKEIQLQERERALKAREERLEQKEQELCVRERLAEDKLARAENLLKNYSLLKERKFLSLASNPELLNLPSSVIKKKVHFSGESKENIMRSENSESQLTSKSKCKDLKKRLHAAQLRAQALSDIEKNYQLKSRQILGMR

[26] = biological target: Bone morphogenetic protein receptor type-1B (Homo sapiens) (UniProt O00238); assay: Inhibition of human ALK6 at 100 nM using casein as substrate by [gamma-33P]-ATP assay
[27] = biological target: Dual specificity mitogen-activated protein kinase kinase 4 (Homo sapiens) (UniProt P45985); assay: Inhibition of human MKK4 at 100 nM using JNK1 as substrate by [gamma-33P]-ATP assay
[28] = biological target: Insulin receptor (Homo sapiens) (UniProt P06213); assay: Inhibition of human IR at 100 nM using poly[Glu:Tyr] (4:1) as substrate by [gamma-33P]-ATP assay
[29] = biological target: Serine/threonine-protein kinase 32C (Homo sapiens) (UniProt Q86UX6); assay: Inhibition of human STK32C at 100 nM using MBP as substrate by [gamma-33P]-ATP assay
[30] = biological target: Serine/threonine-protein kinase Chk2 (Homo sapiens) (UniProt O96017); assay: Inhibition of human CHK2 at 100 nM using KKKVSRSGLYRSPSMPENLNRPR as substrate by [gamma-33P]-ATP assay
Chain of Serine/threonine-protein kinase Chk2 (Homo sapiens) (O96017 whole entry): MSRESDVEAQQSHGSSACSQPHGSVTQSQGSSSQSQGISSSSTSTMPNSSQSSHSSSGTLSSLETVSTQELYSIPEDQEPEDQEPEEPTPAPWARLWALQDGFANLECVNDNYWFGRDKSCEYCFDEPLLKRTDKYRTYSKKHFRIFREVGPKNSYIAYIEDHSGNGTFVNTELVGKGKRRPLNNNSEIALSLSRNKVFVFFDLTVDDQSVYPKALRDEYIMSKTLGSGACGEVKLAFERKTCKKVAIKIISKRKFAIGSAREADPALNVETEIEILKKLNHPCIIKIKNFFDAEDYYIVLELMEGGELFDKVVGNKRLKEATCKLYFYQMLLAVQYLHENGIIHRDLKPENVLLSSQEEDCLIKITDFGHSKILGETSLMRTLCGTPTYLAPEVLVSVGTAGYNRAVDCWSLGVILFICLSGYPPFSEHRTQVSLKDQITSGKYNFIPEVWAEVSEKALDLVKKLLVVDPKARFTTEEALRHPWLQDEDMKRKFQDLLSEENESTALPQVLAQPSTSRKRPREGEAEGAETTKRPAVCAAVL

[31] = biological target: Receptor tyrosine-protein kinase erbB-4 (Homo sapiens) (UniProt Q15303); assay: Inhibition of human ERBB4 at 100 nM using poly[Glu:Tyr] (4:1) as substrate by [gamma-33P]-ATP assay
[32] = biological target: Serine/threonine-protein kinase haspin (Homo sapiens) (UniProt Q8TF76); assay: Inhibition of human haspin at 100 nM using Histone H3 as substrate by [gamma-33P]-ATP assay
Chain of Serine/threonine-protein kinase haspin (Homo sapiens) (Q8TF76 whole entry): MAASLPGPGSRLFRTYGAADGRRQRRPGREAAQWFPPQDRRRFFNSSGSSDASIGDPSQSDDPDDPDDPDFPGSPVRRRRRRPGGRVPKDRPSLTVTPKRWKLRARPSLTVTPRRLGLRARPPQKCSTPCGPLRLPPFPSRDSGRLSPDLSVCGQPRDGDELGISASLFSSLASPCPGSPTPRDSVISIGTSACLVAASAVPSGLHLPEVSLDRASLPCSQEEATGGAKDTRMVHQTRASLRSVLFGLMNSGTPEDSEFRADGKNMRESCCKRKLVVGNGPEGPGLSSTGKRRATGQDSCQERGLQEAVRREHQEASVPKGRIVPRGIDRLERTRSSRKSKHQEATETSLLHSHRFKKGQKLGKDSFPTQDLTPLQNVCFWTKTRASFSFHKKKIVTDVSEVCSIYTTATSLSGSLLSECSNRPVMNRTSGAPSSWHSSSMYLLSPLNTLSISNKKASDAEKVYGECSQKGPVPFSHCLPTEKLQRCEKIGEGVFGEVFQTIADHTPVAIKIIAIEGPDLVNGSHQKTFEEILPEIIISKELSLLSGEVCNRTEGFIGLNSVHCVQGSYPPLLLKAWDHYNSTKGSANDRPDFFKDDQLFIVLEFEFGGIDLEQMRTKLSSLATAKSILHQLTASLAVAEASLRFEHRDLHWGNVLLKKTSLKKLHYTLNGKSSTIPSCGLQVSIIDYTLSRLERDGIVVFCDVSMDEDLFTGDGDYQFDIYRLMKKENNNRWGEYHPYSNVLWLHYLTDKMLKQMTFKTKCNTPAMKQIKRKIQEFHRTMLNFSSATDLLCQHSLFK

## COc1ccc(N2C(=O)COc3ccc(-c4cnc(OC)c(NS(=O)(=O)c5ccc(F)cc5)c4)cc32)cc1
[1]
  bioavailability: 24.1%
[2]
  inhibition: 8.36%
[3]
  inhibition: 0.08%
[4]
  inhibition: 12.7%
[5]
  inhibition: -9.98%
[6]
  inhibition: 4.93%
[7]
  inhibition: 2.41%
[8]
  inhibition: -9.8%
[9]
  inhibition: 21.1%
[10]
  inhibition: 0.68%
[11]
  inhibition: 3.96%
[12]
  inhibition: 2.24%
[13]
  inhibition: 4.8%
[14]
  inhibition: 6.33%
[15]
  inhibition: -5.81%
[16]
  inhibition: 8.78%
[17]
  inhibition: 2.82%
[18]
  inhibition: -3.86%
[19]
  inhibition: 5.37%
[20]
  inhibition: 8.67%
[21]
  inhibition: -1.06%
[22]
  inhibition: 7.23%
[23]
  inhibition: 14.4%
[24]
  inhibition: 7.71%
[25]
  inhibition: 20.4%
[26]
  inhibition: 2.39%
[27]
  inhibition: -4.2%
[28]
  inhibition: 6.82%
[29]
  inhibition: -6.39%
[30]
  inhibition: 6.04%
[31]
  inhibition: -0.06%
[32]
  inhibition: 12.1%
